In ChEMBL document CHEMBL4808171, “Structure-Activity Relationship Study and Biological Evaluation of 2-(Disubstituted phenyl)-indole-5-propanoic Acid Derivatives as GPR40 Full Agonists” (J Med Chem, 2021):
Calls of active or inactive are those of the source. The calls are words filed in the database; no cut-off is given here.

Tests used:
[1] = target: T1, Free fatty acid receptor 1 (Homo sapiens, UniProt O14842); assay: Agonist activity at GPR40 (unknown origin) expressed in CHO cells co-expressing luc2P/SRE assessed as firefly luciferase activity at 10 uM incubated for 24 hrs hrs by Bright-Glo based serum response element (SRE) luciferase reporter assay relative to TAK875; type: functional, cell-based; settings: filed as positive allosteric modulator
T1 sequence (O14842 whole entry): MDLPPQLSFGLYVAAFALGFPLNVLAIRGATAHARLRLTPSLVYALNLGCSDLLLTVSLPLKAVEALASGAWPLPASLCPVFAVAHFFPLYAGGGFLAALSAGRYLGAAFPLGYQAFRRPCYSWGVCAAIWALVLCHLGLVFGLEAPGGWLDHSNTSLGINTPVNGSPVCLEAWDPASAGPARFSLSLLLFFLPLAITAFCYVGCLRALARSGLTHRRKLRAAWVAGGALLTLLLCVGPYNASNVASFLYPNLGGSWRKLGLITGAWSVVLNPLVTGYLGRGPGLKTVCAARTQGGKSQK

[2] = target: T1, Free fatty acid receptor 1; assay: Agonist activity at GPR40 (unknown origin) expressed in CHO cells co-expressing luc2P/SRE (Gq) assessed as firefly luciferase activity at 10 uM incubated for 24 hrs by Bright-Glo based serum response element (SRE) luciferase reporter assay; type: functional, cell-based; settings: filed as positive allosteric modulator
[3] = target: T1, Free fatty acid receptor 1; assay: Agonist activity at GPR40 (unknown origin) expressed in CHO cells co-expressing luc2P/CRE (Gs) assessed as firefly luciferase activity at 10 uM incubated for 24 hrs by Bright-Glo based […] luciferase reporter assay; type: functional, cell-based
[4] = target: Free fatty acid receptor 1 (Mus musculus) (UniProt Q76JU9); assay: Agonist activity at GPR40 in mouse MIN6 cells assessed as fold increase in 17 mM glucose-mediated insulin secretion at 1 to 10 uM incubated for 2 hrs in presence of GW1100 by ELISA relative to control; type: functional, cell-based; settings: dose 1-10 µM
Chain of Free fatty acid receptor 1 (Mus musculus) (Q76JU9 whole entry): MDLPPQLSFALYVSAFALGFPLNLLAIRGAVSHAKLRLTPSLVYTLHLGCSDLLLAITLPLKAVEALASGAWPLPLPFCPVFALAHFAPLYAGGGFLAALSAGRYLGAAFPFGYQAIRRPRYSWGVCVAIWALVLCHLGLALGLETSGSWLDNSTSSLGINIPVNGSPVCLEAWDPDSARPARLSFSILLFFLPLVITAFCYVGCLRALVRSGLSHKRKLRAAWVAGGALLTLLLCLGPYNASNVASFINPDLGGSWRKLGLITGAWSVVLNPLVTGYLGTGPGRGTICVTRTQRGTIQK

[5] = test system: MIN6; assay: Cytotoxicity in mouse MIN6 cells assessed as caspase 3/7 activity at 100 uM incubated for 72 hrs by fluorescence assay; type: cell-based; settings: min6, 72 h
[6] = test system: MIN6; assay: Effect on BSA-PA conjugate-induced lipo-toxicity in mouse MIN6 cells assessed as caspase 3/7 activity at 50 uM incubated for 72 hrs by fluorescence assay; type: functional, cell-based
[7] = Half life in CD-1 mouse at 30 mg/kg, po measured up to 8 hrs by LC-MS/MS analysis; type: ADME, organism-based; settings: in vivo
[8] = Half life in CD-1 mouse at 90 mg/kg, po measured up to 8 hrs by LC-MS/MS analysis; type: ADME, organism-based; settings: in vivo
[9] = Tmax in CD-1 mouse at 10 mg/kg, po measured up to 8 hrs by LC-MS/MS analysis; type: ADME, organism-based; settings: in vivo
[10] = Tmax in CD-1 mouse at 100 mg/kg, po measured up to 8 hrs by LC-MS/MS analysis; type: ADME, organism-based; settings: in vivo
[11] = Cmax in CD-1 mouse at 10 mg/kg, po measured up to 8 hrs by LC-MS/MS analysis; type: ADME, organism-based; set-up: route oral, dose 10 mg/kg, time <=8; settings: in vivo
[12] = Cmax in CD-1 mouse at 90 mg/kg, po measured up to 8 hrs by LC-MS/MS analysis; type: ADME, organism-based; set-up: route oral, dose 90 mg/kg, time <=8; settings: in vivo
[13] = Tlast in CD-1 mouse at 10 mg/kg, po measured up to 8 hrs by LC-MS/MS analysis; type: ADME, organism-based; settings: in vivo
[14] = Tlast in CD-1 mouse at 30 mg/kg, po measured up to 8 hrs by LC-MS/MS analysis; type: ADME, organism-based; settings: in vivo
[15] = Clast in CD-1 mouse at 90 mg/kg, po measured up to 8 hrs by LC-MS/MS analysis; type: ADME, organism-based; settings: in vivo, read-out: Clast
[16] = AUC (0 to t) in CD-1 mouse at 10 mg/kg, po measured up to 8 hrs by LC-MS/MS analysis; type: ADME, organism-based; set-up: route oral, dose 10 mg/kg, time <=8; settings: in vivo
[17] = AUC (0 to t) in CD-1 mouse at 30 mg/kg, po measured up to 8 hrs by LC-MS/MS analysis; type: ADME, organism-based; set-up: route oral, dose 30 mg/kg, time <=8; settings: in vivo
[18] = MRTlast in CD-1 mouse at 10 mg/kg, po measured up to 8 hrs by LC-MS/MS analysis; type: ADME, organism-based; settings: in vivo
[19] = MRTlast in CD-1 mouse at 30 mg/kg, po measured up to 8 hrs by LC-MS/MS analysis; type: ADME, organism-based; settings: in vivo
[20] = MRTlast in CD-1 mouse at 90 mg/kg, po measured up to 8 hrs by LC-MS/MS analysis; type: ADME, organism-based; settings: in vivo
[21] = Solubility of the compound in FaSSIF at 27 degC measured after 24 hrs; type: physicochemical; settings: simulated gi fluid
[22] = target: T2, Free fatty acid receptor 2 (Homo sapiens, UniProt O15552); assay: Agonist activity at FFAR2 (unknown origin); type: functional
T2 sequence (O15552 whole entry): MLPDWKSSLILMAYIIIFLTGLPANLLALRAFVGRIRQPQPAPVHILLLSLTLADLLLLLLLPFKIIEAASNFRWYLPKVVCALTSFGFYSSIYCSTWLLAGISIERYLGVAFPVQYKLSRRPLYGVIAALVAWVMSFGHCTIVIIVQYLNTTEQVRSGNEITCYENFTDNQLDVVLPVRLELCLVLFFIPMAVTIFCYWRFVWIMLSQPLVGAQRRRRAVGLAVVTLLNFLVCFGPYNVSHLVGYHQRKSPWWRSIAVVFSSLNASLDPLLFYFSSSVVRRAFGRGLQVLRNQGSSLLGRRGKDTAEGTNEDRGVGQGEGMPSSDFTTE

[23] = target: T3, Free fatty acid receptor 4 (Homo sapiens, UniProt Q5NUL3); assay: Agonist activity at FFAR4 (unknown origin); type: functional
T3 sequence (Q5NUL3 whole entry): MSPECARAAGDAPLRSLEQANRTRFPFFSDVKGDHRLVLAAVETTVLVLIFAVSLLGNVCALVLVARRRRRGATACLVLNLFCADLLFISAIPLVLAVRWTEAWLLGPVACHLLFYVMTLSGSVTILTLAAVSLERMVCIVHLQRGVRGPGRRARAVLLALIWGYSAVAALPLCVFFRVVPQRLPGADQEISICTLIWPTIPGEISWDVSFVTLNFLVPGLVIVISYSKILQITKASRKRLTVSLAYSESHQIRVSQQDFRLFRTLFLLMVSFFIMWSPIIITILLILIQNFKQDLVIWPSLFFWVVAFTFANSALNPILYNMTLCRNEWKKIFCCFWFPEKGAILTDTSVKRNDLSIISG

[24] = target: T1, Free fatty acid receptor 1; assay: Agonist activity at GPR40 (unknown origin) expressed in CHO cells co-expressing luc2P/SRE assessed as induction of TAK875-induced firefly luciferase activity incubated for 24 hrs by Bright-Glo based serum response element (SRE) luciferase reporter assay; type: functional, cell-based; settings: filed as positive allosteric modulator
[25] = target: T1, Free fatty acid receptor 1; assay: Agonist activity at GPR40 (unknown origin) expressed in CHO cells co-expressing luc2P/SRE assessed as induction of DHA-induced firefly luciferase activity incubated for 24 hrs by Bright-Glo based serum response element (SRE) luciferase reporter assay; type: functional, cell-based; settings: filed as positive allosteric modulator
[26] = test system: Mus musculus; assay: Antidiabetic activity in C57BL/6J mouse assessed as reduction in plasma glucose level at 30 mg/kg, po pretreated 1 hr before glucose challenge measured up to 120 mins by Oral glucose tolerance test; type: functional; set-up: scale not given: the % may be the effect or the level left; settings: 2 h

SMILES | Emax [1] [%] | Activity [2] | EC50 [3] [µM] | Activity [4] | Activity [5] | Activity [6] | half-life [7] [h] | half-life [8] [h] | Tmax [9] [h] | Tmax [10] [h] | Cmax [11] [ng/mL] | Cmax [12] [ng/mL] | Tlast [13] [h] | Tlast [14] [h] | concentration at 8 h [15] [ng/mL] | AUC(0-t) at 8 h [16] [ng·h/mL] | AUC(0-t) at 8 h [17] [ng·h/mL] | MRT last at 8 h [18] [h] | MRT last at 8 h [19] [h] | MRT last at 8 h [20] [h] | also measured
Cc1cc(F)ccc1-c1cc2cc(CCC(=O)O)ccc2[nH]1 | 111 | Active | 0.521 | inactive | Non-Toxic | inactive | 1.16 | 1.4 | 0.55 | 0.44 | 3740 | 10300 | 8 | 8 | 63 | 4860 | 38700 | 1.23 | 1.34 | 1.14 | solubility [21]: Soluble; EC50 [22]: > 25 µM; EC50 [23]: > 25 µM; Activity [24]: Active; Activity [25]: Active; Activity [26]: 22.9%
Cc1ccc(C)c(-c2cc3cc(CCC(=O)O)ccc3[nH]2)c1 | 103 | Active | 12.9 | inactive | Non-Toxic | inactive | 1.33 | 1.36 | 0.33 | 0.44 | 52900 | 65000 | 8 | 8 | 2680 | 114000 | 33600 | 2.06 | 1.24 | 2.31 | solubility [21]: Soluble; EC50 [22]: > 25 µM; EC50 [23]: 14.8 µM; Activity [24]: Active; Activity [25]: Active; Activity [26]: 14.4%
